{"source": "paper PMC4444023", "about": "(PLoS ONE, 2015)", "key": {"nSMase [1]": {"target": "nSMase", "design": "method as in PMID 21615386, PMID 17049336", "conditions": "Enzyme source: Mouse brain; cited from earlier work"}, "SIRT2": {"system": "SIRT2", "conditions": "cited from earlier work"}, "[2]": {"system": "rat primary hippocampal neurons", "experiment": "Hippocampal neuronal survival (Hoechst 33342)", "format": "cell-based", "method": "All animal procedures were approved by the Johns Hopkins University Animal Care and Use Committee. Primary hippocampal neurons were prepared from day 18 decapitated embryos of Sprague-Dawley rats following previously described methods. Cells were seeded on polyethyleneimine (PEI)-coated slides in 12-well plates and cultured between 14–21 days. […] After 18 h, cells were stained with 50 μg/ml Hoeschst 33342 for 20 min and then fixed with 4% paraformaldehyde for 30 min. The number of living and apoptotic cells was determined by fluorescence microscopy. A minimum of 500 cells were counted per treatment condition. Results were normalized to control untreated cells and were representative of at least two independent experiments conducted in triplicate. Statistical evaluation of the data was done by Student’s t-test."}, "human nSMase2 [3]": {"target": "T1, human nSMase2 (Homo sapiens, UniProt Q9NY59)", "T1 sequence (Q9NY59 1-655)": "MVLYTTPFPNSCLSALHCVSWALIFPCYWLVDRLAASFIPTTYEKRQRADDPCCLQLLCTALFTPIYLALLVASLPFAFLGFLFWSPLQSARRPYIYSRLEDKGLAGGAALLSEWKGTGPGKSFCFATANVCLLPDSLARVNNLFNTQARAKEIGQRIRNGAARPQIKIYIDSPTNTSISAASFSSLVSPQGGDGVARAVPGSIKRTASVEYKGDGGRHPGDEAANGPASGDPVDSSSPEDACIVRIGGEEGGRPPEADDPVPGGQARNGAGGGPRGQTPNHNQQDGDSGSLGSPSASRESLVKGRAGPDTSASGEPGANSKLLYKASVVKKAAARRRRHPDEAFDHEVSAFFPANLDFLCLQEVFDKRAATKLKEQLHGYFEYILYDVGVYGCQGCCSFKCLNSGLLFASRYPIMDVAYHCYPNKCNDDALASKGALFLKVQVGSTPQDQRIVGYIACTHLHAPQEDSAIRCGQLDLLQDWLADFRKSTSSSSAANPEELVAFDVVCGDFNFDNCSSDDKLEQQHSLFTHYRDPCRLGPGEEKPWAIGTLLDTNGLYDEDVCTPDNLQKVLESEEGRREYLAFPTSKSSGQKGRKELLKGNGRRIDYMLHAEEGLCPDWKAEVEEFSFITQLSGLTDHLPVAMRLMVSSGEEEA", "experiment": "Fluorescence (Amplex red coupled) nSMase2 activity assay", "format": "biochemical", "design": "Full length human nSMase2 cDNA with a C-terminal Flag tag; crude cell lysate used as enzyme", "conditions": "for block of human nSMase2 activity: even at 100 μM; for inhibition of human nSMase2 activity: 150 μM GW4869, 100 μM manumycin A, altenusin, zoledronic acid", "method": "The production of the latter was coupled to a dephosphorylation reaction catalyzed by alkaline phosphatase (4 U/ml) to produce choline, followed by oxidation of choline by choline oxidase (0.1 U/ml) to produce betaine and H2O2, which in the presence of horseradish peroxidase (HRP, 1U/ml) and 50 μM Amplex red, generates the fluorescent molecule resorufin (Life Technologies). Substrate stock solution was prepared in 2% Triton X-100, vortexed and sonicated for 30 min. Reactions were carried out for 1 h at 37°C in 100 mM Tris-HCl pH 7.4, 10 mM MgCl2, 0.2% Triton X-100 and the generation of the fluorescent product was monitored by measuring relative florescence units (RFU) with excitation at 530 nm and emission at 590 nm (Fig 1). This assay was optimized for 384-well format (50 μl total volume per well) based on linearity of the enzymatic activity with respect to time, as well as substrate and enzyme concentrations. […] This fluorescence assay was used for compound screening and IC50 value determinations, based on duplicate eight-point dose response curves."}, "SIRT1": {"system": "SIRT1", "conditions": "cited from earlier work"}, "[4]": {"conditions": "in DMSO; cited from earlier work"}, "Solubility": {"experiment": "Solubility", "format": "physicochemical", "conditions": "cambinol compared to GW4869"}, "nSMase [5]": {"target": "nSMase", "design": "method as in PMID 21615386, PMID 17049336", "conditions": "cited from earlier work"}, "nSMase [6]": {"system": "nSMase", "design": "method as in PMID 21615386, PMID 17049336", "conditions": "cited from earlier work", "remark": "listed apart in the source"}, "human nSMase2 [7]": {"target": "T1, human nSMase2", "experiment": "14C-SM confirmatory direct activity assay", "format": "biochemical", "design": "Full length human nSMase2 cDNA with a C-terminal Flag tag; host or cells: HEK293, stably transfected; crude cell lysate used as enzyme", "method": "This assay was dependent on the direct hydrolysis of ^14C-labeled SM (^14C N-methyl groups in the phosphorylcholine) by human nSMase2. Optimization of assay conditions was accomplished according to the methods of Barbone et al.. Briefly, bovine [N-methyl-^14C]-sphingomyelin (specific activity […], Perkin Elmer) and phosphatidylinositol (Avanti Polar Lipids) were evaporated to dryness under a stream of nitrogen and resuspended at an equimolar concentration of 0.1 mM in water with 0.5% Triton X-100 (Sigma). The solution was vortexed for 30 min and then sonicated for 30 min. Assay conditions were as follows: 50 μl total volume per reaction, consisting of 20 μM SM, reaction buffer (100 mM Tris-HCl pH 7.5, 80 mM MgCl2, 0.1% Triton X-100); 10 μl cell lysate containing recombinant human nSMase2 (0.5–1 μg protein/assay) and 5 μl of compound in reaction buffer containing 10% DMSO. After 1 h incubation at 37°C the reaction was terminated by the addition of 30 μl of water and 175 μl of chloroform/methanol (2:1, v:v), followed by vigorous vortexing. Tubes were centrifuged for 5 min at 10,000 xg at room temperature to separate the organic bottom phase containing labeled SM and the aqueous upper phase containing ^14C-labeled-phosphorylcholine. An aliquot (50 μl) of the upper phase was transferred to a vial with 10 ml of scintillant and counted for 2 min on a Beckman LS-6000IC scintillation counter. Enzyme activity was directly proportional to the disintegrations per min (dpm) resulting from the generation of ^14C-phosphorylcholine."}}, "note": "Several values for one entry are separate records, joined by “and”; a condition that tells them apart may be missing. Identical values can stand only once. Entries after “also recorded” stand apart in the source; their conditions may differ. Like-named read-outs stand apart in the source and are kept apart here.", "data": [{"smiles": "CCCCCCCCCCC=NNC(=N)N", "note": "[C11AG]", "values": [{"measurement": "IC50", "setting": "nSMase [1]", "value": 8, "unit": "µM"}]}, {"smiles": "NC(=O)[C@H]1CCCCc2c1[nH]c1ccc(Cl)cc21", "note": "[CHIC-35, reference compound]", "values": [{"measurement": "IC50", "setting": "SIRT2", "value": 19.6, "unit": "µM"}, {"measurement": "neuron survival, Mean (normalized to control untreated cells)", "setting": "[2]; 100 ng/ml TNFα, 200 nM compound", "value": 71.88}, {"measurement": "neuron survival, Mean (normalized to control untreated cells)", "setting": "[2]; No TNFα, 200 nM compound", "value": 62.07}, {"measurement": "block of human nSMase2 activity", "setting": "human nSMase2 [3]", "value": "not possible to block"}, {"measurement": "IC50", "setting": "human nSMase2 [3]; fluorescence nSMase2 assay (S2 Fig)", "value": 70, "unit": "µM"}, {"measurement": "IC50", "setting": "SIRT1", "value": "[…]"}]}, {"smiles": "O=C(/C=C\\c1ccc(/C=C\\C(=O)Nc2ccc(C3=NCCN3)cc2)cc1)Nc1ccc(C2=NCCN2)cc1", "note": "[GW4869, reference compound]", "values": [{"measurement": "solubility", "setting": "[4]", "value": 200, "unit": "µg/mL"}, {"measurement": "aqueous solubility", "setting": "Solubility", "value": "low"}, {"measurement": "modulation of enzymatic activity (Fig 3C raw data)", "setting": "human nSMase2 [3]; 150 µM (nominal)", "value": "59.6 RFU and 72.8 RFU and 57.5 RFU and 70.4 RFU"}, {"measurement": "inhibition of human nSMase2 activity", "setting": "human nSMase2 [3]", "value": "possible to inhibit enzyme activity; also recorded: inhibition"}, {"measurement": "IC50", "setting": "nSMase [5]; Enzyme source: Rat brain", "value": 1, "unit": "µM"}, {"measurement": "MOI", "setting": "nSMase [5]", "value": "Non- competitive"}]}, {"smiles": "CCCC[C@@H](C)/C=C(C)/C=C(\\C)C(=O)NC1=C[C@@](O)(/C=C/C=C/C=C/C(=O)NC2=C(O)CCC2=O)[C@@H]2O[C@@H]2C1=O", "note": "[Manumycin A, reference compound]", "values": [{"measurement": "inhibition of human nSMase2 activity", "setting": "human nSMase2 [3]", "value": "inhibition"}, {"measurement": "MOI", "setting": "nSMase [6]", "value": "Irreversible"}]}, {"smiles": "CCCCn1c(-c2ccccc2)c(Cc2c(O)ccc3ccccc23)c(=O)[nH]c1=S", "note": "[compound 4]", "values": [{"measurement": "potency and specificity against SIRT 2 vs cambinol", "setting": "SIRT2", "value": "significantly improved"}, {"measurement": "human nSMase2 inhibitory activity of analog vs cambinol", "setting": "human nSMase2 [7]; SAR", "value": "loss of activity; also recorded: eliminated"}, {"measurement": "IC50", "setting": "human nSMase2 [7]; [14C]-SM direct activity assay, human recombinant enzyme", "value": "> 100", "unit": "µM"}]}, {"smiles": "CC(NC(=O)c1ccccc1/N=C/c1c(O)ccc2ccccc12)c1ccccc1", "note": "(centres unmarked) [sirtinol, reference compound]", "values": [{"measurement": "IC50", "setting": "SIRT2", "value": "[…]"}, {"measurement": "neuron survival, Mean (normalized to control untreated cells)", "setting": "[2]; 100 ng/ml TNFα, 40 µM compound", "value": 60.73}, {"measurement": "neuron survival, Mean (normalized to control untreated cells)", "setting": "[2]; No TNFα, 40 µM compound", "value": 53.3}, {"measurement": "block of human nSMase2 activity", "setting": "human nSMase2 [3]", "value": "not possible to block"}, {"measurement": "IC50", "setting": "SIRT1", "value": "[…]"}]}]}
